According to patent US20060069132A1, “Azolecarboxamide herbicides” (priority 2004, published 2006):

Key:
velvetleaf = assay: Test C pre-/postemergence herbicide test; type: in vivo, Abutilon theophrasti; details: for Velvetleaf plant response rating: Preemergence, 500 g ai/ha, scale 0 to 100, 0 no effect, 100 complete control
In short: (§1)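 Visual ratings on a 0–100 scale (100 = complete control) made versus untreated controls after 12 to 14 greenhouse days. Test chemicals, formulated in surfactant-containing non-phytotoxic solvent, applied preemergence to planted seeds or postemergence to 1- to 4-leaf plants (2 to 18 cm).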

corn = assay: Test C pre-/postemergence herbicide test; type: in vivo, Zea mays; details: for Corn plant response rating: Preemergence, 500 g ai/ha, scale 0 to 100, 0 no effect, 100 complete control
In short: as §1

barnyardgrass = assay: Test B flooded paddy test; type: in vivo, Echinochloa crus-galli; details: 1000 g ai/ha, visual rating, scale 0 to 100 (0 no effect, 100 complete control), 13 to 15 days
In short: (§2)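 Plants grow to 1- to 4-leaf stage (2–18 cm) for postemergence spraying, or to 2-leaf stage for the paddy test. Formulated compound is applied. Greenhouse holding lasts 13–15 days. Response is scored visually relative to controls, 0 no effect to 100 complete control; a dash means no result.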

goosegrass = assay: Test C pre-/postemergence herbicide test; type: in vivo, Eleusine indica; details: for Goosegrass plant response rating: Preemergence, 500 g ai/ha, scale 0 to 100, 0 no effect, 100 complete control
In short: as §1

eastern black nightshade = assay: Test C pre-/postemergence herbicide test; type: in vivo, Solanum ptycanthum; details: for Nightshade plant response rating: Preemergence, 500 g ai/ha, scale 0 to 100, 0 no effect, 100 complete control
In short: as §1

cocklebur = assay: Test C pre-/postemergence herbicide test; type: in vivo, Xanthium strumarium
In short: as §1

johnsongrass = assay: Test C pre-/postemergence herbicide test; type: in vivo, Sorghum halepense; details: for Johnsongrass plant response rating: Preemergence, 500 g ai/ha, scale 0 to 100, 0 no effect, 100 complete control
In short: as §1

ducksalad = assay: Test B flooded paddy test; type: in vivo, Heteranthera limosa; details: 1000 g ai/ha, visual rating, scale 0 to 100 (0 no effect, 100 complete control), 13 to 15 days
In short: as §2

rice = assay: Test B flooded paddy test; type: in vivo, Oryza sativa; details: 1000 g ai/ha, visual rating, scale 0 to 100 (0 no effect, 100 complete control), 13 to 15 days
In short: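 Treated at 2-leaf (paddy) or 1–4-leaf, 2–18 cm (postemergence); greenhouse 13–15 d; visual score vs control, 0 none to 100 complete control; dash = not tested.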

lambsquarters = assay: Test C pre-/postemergence herbicide test; type: in vivo, Chenopodium album; details: for Lambsquarters plant response rating: Preemergence, 500 g ai/ha, scale 0 to 100, 0 no effect, 100 complete control
In short: as §1

[1] = 125 g ai/ha, scale 0 (no effect) to 100 (complete control), visual, 12 to 14 days, preemergence
[2] = 250 g ai/ha, scale 0 to 100 (0 no effect, 100 complete control), visual, 12 to 14 days, preemergence
[3] = Preemergence, 500 g ai/ha, scale 0 to 100, 0 no effect, 100 complete control
[4] = 62 g ai/ha, preemergence, scale 0 to 100
[5] = 250 g ai/ha, scale 0-100, preemergence

Compound	Plant response rating, Velvetleaf (velvetleaf; [1])	Velvetleaf plant response rating (velvetleaf)	Plant response rating (0 = no effect, 100 = complete control), Corn (corn; 62 g ai/ha, preemergence)	Plant response rating, Corn (corn; [1])	Plant response rating, Corn (corn; [2])	Corn plant response rating (corn)	Barnyardgrass plant response rating (barnyardgrass)	Plant response rating (0 = no effect, 100 = complete control), Goosegrass (goosegrass; 62 g ai/ha, preemergence)	Plant response rating, Goosegrass (goosegrass; [1])	Goosegrass plant response rating (goosegrass)	Plant response rating, Nightshade (eastern black nightshade; [1])	Nightshade plant response rating (eastern black nightshade)	Plant response rating, Cocklebur (cocklebur; [1])	Cocklebur plant response rating (cocklebur; [3])	Plant response rating, Johnsongrass (johnsongrass; [1])	Johnsongrass plant response rating (johnsongrass)	Ducksalad plant response rating (ducksalad)	Rice plant response rating (rice)	Plant response rating, Lambsquarters (lambsquarters; [1])	Lambsquarters plant response rating (lambsquarters)	further results
CCn1nc(C(C)(C)C)cc1C(=O)Nc1cccc(C(=O)NCC(C)C)c1 [Compound 61]	45	100	0	0	0	0	30	0	40	95	20	90	0	0	30	60	80	0	100	100	Plant response rating, Velvetleaf (velvetleaf; [2]): 80; Plant response rating, Goosegrass (goosegrass; [2]): 70; Plant response rating (0 = no effect, 100 = complete control), Nightshade (eastern black nightshade; 62 g ai/ha, preemergence): 0; Plant response rating, Nightshade (eastern black nightshade; [2]): 40; Plant response rating (0 = no effect, 100 = complete control), Cocklebur (cocklebur; 62 g ai/ha, preemergence): 0; Plant response rating (0 = no effect, 100 = complete control), Johnsongrass (johnsongrass; 62 g ai/ha, preemergence): 10; Plant response rating, Johnsongrass (johnsongrass; [2]): 50; Plant response rating (0 = no effect, 100 = complete control), Lambsquarters (lambsquarters; 62 g ai/ha, preemergence): 100; Plant response rating, Lambsquarters (lambsquarters; [2]): 100
CCCCOc1cccc(NC(=O)c2cc(C(C)(C)C)nn2CC)c1 [Compound 137]	10	100	0	5	5	5	20	40	85	100	85	90	0	0	5	40	30	20	100	100	Plant response rating (0 = no effect, 100 = complete control), Nightshade (eastern black nightshade; 62 g ai/ha, preemergence): 60; Plant response rating (0 = no effect, 100 = complete control), Cocklebur (cocklebur; 62 g ai/ha, preemergence): 0; Plant response rating, Cocklebur (cocklebur; [2]): 0; Plant response rating (0 = no effect, 100 = complete control), Johnsongrass (johnsongrass; 62 g ai/ha, preemergence): 0; Plant response rating (0 = no effect, 100 = complete control), Lambsquarters (lambsquarters; 62 g ai/ha, preemergence): 40
CCN(CC)C(=O)c1ccnc(NC(=O)c2cc(C(C)(C)C)nn2CC)c1 [Compound 153]	20	100		0	0	0	40		75	95	100	100	0	0	15	85	80	60	100	100	Plant response rating, Velvetleaf (velvetleaf; [4]): 0; Plant response rating, Corn (corn; [4]): 0; Plant response rating, Goosegrass (goosegrass; [4]): 55; Plant response rating, Nightshade (eastern black nightshade; [4]): 90; Plant response rating, Cocklebur (cocklebur; [4]): 0; Plant response rating, Cocklebur (cocklebur; [2]): 0; Plant response rating, Johnsongrass (johnsongrass; [4]): 0; Plant response rating, Lambsquarters (lambsquarters; [4]): 95
CCn1nc(C(C)(C)C)cc1C(=O)Nc1cc(C(=O)N(C)C)ccn1 [Compound 156, 2-[[[3-(1,1-dimethylethyl)-1-ethyl-1H-pyrazol-5-yl]carbonyl]amino]-N,N-dimethyl-4-pyridinecarboxamide]		100				50				95		100				100				100	pest or weed control at 62 g/ha (velvetleaf; Abutilon theophrasti, pre-emergence, 62 g ai/ha, preemergence, scale 0 to 100, read-out: Plant response rating, Velvetleaf): 43%; pest or weed control at 125 g/ha (velvetleaf; Abutilon theophrasti, pre-emergence, 125 g ai/ha, scale 0 (no effect) to 100 (complete control), visual, 12 to 14 days, read-out: Plant response rating, Velvetleaf): 63%; Corn plant response rating (crop injury, 0 = no effect, 100 = complete kill) at 62 g/ha (corn; Zea mays, pre-emergence, 312 h, 62 g ai/ha, preemergence, scale 0 to 100): 15%; Corn plant response rating (crop injury, 0 = no effect, 100 = complete kill) at 125 g/ha (corn; Zea mays, pre-emergence, 312 h, 125 g ai/ha, scale 0 (no effect) to 100 (complete control), visual, 12 to 14 days): 38%; Corn plant response rating (crop injury, 0 = no effect, 100 = complete kill) at 250 g/ha (corn; Zea mays, pre-emergence, 312 h, 250 g ai/ha, scale 0 to 100 (0 no effect, 100 complete control), visual, 12 to 14 days): 40%; pest or weed control at 1000 g/ha (barnyardgrass; Echinochloa crus-galli, 336 h, read-out: Barnyardgrass plant response rating): 100%; pest or weed control at 62 g/ha (goosegrass; Eleusine indica, pre-emergence, 312 h, 62 g ai/ha, preemergence, scale 0 to 100, read-out: Plant response rating, Goosegrass): 83%; pest or weed control at 125 g/ha (goosegrass; Eleusine indica, pre-emergence, 312 h, 125 g ai/ha, scale 0 (no effect) to 100 (complete control), visual, 12 to 14 days, read-out: Plant response rating, Goosegrass): 90%; pest or weed control at 62 g/ha (eastern black nightshade; pre-emergence, 62 g ai/ha, preemergence, scale 0 to 100, read-out: Plant response rating, Nightshade): 75%; pest or weed control at 125 g/ha (eastern black nightshade; pre-emergence, 125 g ai/ha, scale 0 (no effect) to 100 (complete control), visual, 12 to 14 days, read-out: Plant response rating, Nightshade): 93%; pest or weed control at 62 g/ha (cocklebur; Xanthium strumarium, pre-emergence, 312 h, 62 g ai/ha, preemergence, scale 0 to 100, read-out: Plant response rating, Cocklebur): 63%; pest or weed control at 125 g/ha (cocklebur; Xanthium strumarium, pre-emergence, 312 h, 125 g ai/ha, scale 0 (no effect) to 100 (complete control), visual, 12 to 14 days, read-out: Plant response rating, Cocklebur): 98%; pest or weed control at 250 g/ha (cocklebur; Xanthium strumarium, pre-emergence, 312 h, 250 g ai/ha, scale 0 to 100 (0 no effect, 100 complete control), visual, 12 to 14 days, read-out: Plant response rating, Cocklebur): 100%; pest or weed control at 500 g/ha (cocklebur; Xanthium strumarium, pre-emergence, 312 h, Preemergence, 500 g ai/ha, scale 0 to 100, 0 no effect, 100 complete control, read-out: Cocklebur plant response rating): 100%; pest or weed control at 62 g/ha (johnsongrass; Sorghum halepense, pre-emergence, 62 g ai/ha, preemergence, scale 0 to 100, read-out: Plant response rating, Johnsongrass): 80%; pest or weed control at 125 g/ha (johnsongrass; Sorghum halepense, pre-emergence, 125 g ai/ha, scale 0 (no effect) to 100 (complete control), visual, 12 to 14 days, read-out: Plant response rating, Johnsongrass): 85%; pest or weed control at 1000 g/ha (ducksalad; Heteranthera limosa, 336 h, read-out: Ducksalad plant response rating): 100%; plant injury at 1000 g/ha (rice; Oryza sativa, 336 h, read-out: Rice plant response rating): 90%; pest or weed control at 62 g/ha (lambsquarters; Chenopodium album, pre-emergence, 62 g ai/ha, preemergence, scale 0 to 100, read-out: Plant response rating, Lambsquarters): 100%; pest or weed control at 125 g/ha (lambsquarters; Chenopodium album, pre-emergence, 125 g ai/ha, scale 0 (no effect) to 100 (complete control), visual, 12 to 14 days, read-out: Plant response rating, Lambsquarters): 100%
CCN(CC)C(=O)c1cccc(NC(=O)c2sc(C(C)(C)C)nc2C)c1 [Compound 199]	70	85		0		0	10		70	95	95	100	0	0	30	90	0	20	95	100	Plant response rating, Velvetleaf (velvetleaf; [4]): 10; Plant response rating, Velvetleaf (velvetleaf; [5]): 85; Plant response rating, Corn (corn; [4]): 0; Plant response rating, Corn (corn; [5]): 0; Plant response rating, Goosegrass (goosegrass; [4]): 5; Plant response rating, Goosegrass (goosegrass; [5]): 90; Plant response rating, Nightshade (eastern black nightshade; [4]): 85; Plant response rating, Nightshade (eastern black nightshade; [5]): 100; Plant response rating, Cocklebur (cocklebur; [4]): 0; Plant response rating, Cocklebur (cocklebur; [5]): 0; Plant response rating, Johnsongrass (johnsongrass; [4]): 0; Plant response rating, Johnsongrass (johnsongrass; [5]): 60; Plant response rating, Lambsquarters (lambsquarters; [4]): 80; Plant response rating, Lambsquarters (lambsquarters; [5]): 100
